Laboratory results from US20170121344A1 (Siga Technologies, Inc., priority 2009, published 2017).
Like-named read-outs stand apart in the source and are kept apart here.

System: Dengue-2 (Strain New Guinea C)
Assay: Viral yield assay against Dengue-2 in Vero cells
Type: cell-based, Dengue virus
Details: Dengue virus
In short: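 Yield reduction, Vero; MOI 0.1; compound vs DMSO; 37° C; harvest 48 h p.i.; titer on Vero; EC50 fitted. Other serotypes run the same way.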

[1] = Vero cells, MOI 0.1, harvested 48 hours post infection, read-out: Activity (EC50 class) against Dengue-2 Virus in Vero cells
[2] = Vero, 48 h, read-out: Activity (EC50 class) against Dengue-2 Virus in Vero cells
[3] = DENV2, viral yield assay, Vero cells, MOI 0.1, 48 hours post infection, read-out: Activity (EC50 in μM) DENV-2

SMILES | EC50 [1] | EC50 [3] | other results
CN1CCc2nc3sc(C(=O)Nc4ccc5c(c4)OCO5)c(N)c3cc2C1 [Compound 33, 3-Amino-6-methyl-5,6,7,8-tetrahydro-thieno[2,3-b][1,6]naphthyridine-2-carboxylic acid benzo[1,3]dioxol-5-ylamide] | < 5 µM | – | –
COc1ccc(CNC(=O)c2sc3nc4c(c(C(F)(F)F)c3c2N)CN(C(C)=O)CC4)cc1 [Compound 262, 6-Acetyl-3-amino-4-trifluoromethyl-5,6,7,8-tetrahydro-thieno[2,3-b][1,6]naphthyridine-2-carboxylic acid 4-methoxy-benzylamide] | – | – | EC50 [2]: > 25 µM
COc1ccccc1NC(=O)c1sc2nc(N3CCOCC3)cc(-c3ccccc3)c2c1O [Compound 385, 3-hydroxy-N-(2-methoxyphenyl)-6-morpholino-4-phenyl-thieno[2,3-b] pyridine-2-carboxamide] | – | 5 to 25 µM | –
Cc1cc(C)c2c(C)c(C(=O)NCCC(=O)N3CCCC3)sc2n1 [Compound 405, 3,4,6-trimethyl-N-(3-oxo-3-pyrrolidin-1-yl-propyl)thieno[2,3-b]pyridine-2-carboxamide] | – | < 5 µM | –
O=C(Nc1cccc(Cl)c1)c1sc2ncccc2c1O [Compound 381, N-(3-chlorophenyl)-3-hydroxy-thieno[2,3-b]pyridine-2-carboxamide] | – | 5 to 25 µM | –
Cc1cc(C)c2c(C)c(C(=O)Nc3nc4ccccc4s3)sc2n1 [Compound 392, N-(1,3-benzothiazol-2-yl)-3,4,6-trimethyl-thieno[2,3-b]pyridine-2-carboxamide] | – | 5 to 25 µM | –
Cc1c(C(=O)NC(C)(C)C)sc2nc(-c3cccs3)cc(C(F)(F)F)c12 [Compound 388, N-tert-butyl-3-methyl-6-(2-thienyl)-4-(trifluoromethyl)thieno[2,3-b]pyridine-2-carboxamide] | – | < 5 µM | –
CN1CCc2nc3sc(C(=O)Nc4cc(Br)ccc4Br)c(N)c3cc2C1 [Compound 63, 3-Amino-6-methyl-5,6,7,8-tetrahydro-thieno[2,3-b][1,6]naphthyridine-2-carboxylic acid (2,5-dibromo-phenyl)-amide] | < 5 µM | – | –
CCc1nnc(NC(=O)c2sc3nc4c(cc3c2N)CCC4)s1 [Compound 190, 3-Amino-6,7-dihydro-5H-cyclopenta[b]thieno[3,2-e]pyridine-2-carboxylic acid (5-ethyl-[1,3,4]thiadiazol-2-yl)-amide] | > 25 µM | – | –
COc1ccc(-c2ccc3c(N)c(C(=O)Nc4ccc(F)cc4Cl)sc3n2)cc1OC [Compound 539, 3-amino-N-(2-chloro-4-fluoro-phenyl)-6-(3,4-dimethoxyphenyl)thieno[2,3-b] pyridine-2-carboxamide] | – | < 5 µM | –
Nc1c(C(=O)Nc2cccc(C(F)(F)F)c2)sc2nc3c(cc12)C(=O)CCC3 [Compound 12, 3-Amino-5-oxo-5,6,7,8-tetrahydro-thieno[2,3-b]quinoline-2-carboxylic acid (3-trifluoromethyl-phenyl)-amide] | – | – | EC50 [2]: < 5 µM
Nc1c(C(=O)Nc2ccc([N+](=O)[O-])cc2)sc2nc3c(c(-c4ccco4)c12)CCC3 [Compound 212, 3-Amino-4-furan-2-yl-6,7-dihydro-5H-cyclopenta[b]thieno[3,2-e]pyridine-2-carboxylic acid (4-nitro-phenyl)-amide] | > 25 µM | – | –
COc1cccc(-c2ccc3c(N)c(C(=O)Nc4ccccc4C)sc3n2)c1 [Compound 521, 3-amino-6-(3-methoxyphenyl)-N-(o-tolyl)thieno[2,3-b]pyridine-2-carboxamide] | – | < 5 µM | –
COc1ccc(-c2ccc3c(N)c(C(=O)Nc4ccc(F)cc4)sc3n2)cc1OC [Compound 541, 3-amino-6-(3,4-dimethoxyphenyl)-N-(4-fluorophenyl)thieno[2,3-b]pyridine-2-carboxamide] | – | – | EC50 (DENV2, Vero, 48 h, read-out: Activity (EC50 in μM) DENV-2): < 5 µM
Cc1ccc(NC(=O)c2sc3nc(C)cc(C(F)(F)F)c3c2N)nc1 [Compound 132, 3-Amino-6-methyl-4-trifluoromethyl-thieno[2,3-b]pyridine-2-carboxylic acid (5-methyl-pyridin-2-yl)-amide] | > 25 µM | – | –
Cc1c(C(=O)Nc2ccc(F)cc2)sc2ncc(C(=O)Nc3ccc(F)cc3)cc12 [Compound 397, N2,N5-bis(4-fluorophenyl)-3-methyl-thieno[2,3-b]pyridine-2,5-dicarboxamide] | – | < 5 µM | –
CC1(C)Cc2c(c(N3CCOCC3)nc3sc4c(c23)N2C(=O)CCC2(C)NC4=O)CO1 (stereo not drawn) [Compound 248, 2,2,9a-Trimethyl-5-(4-morpholinyl)-1,4,9,9a,10,11-hexahydro-2H-pyrano[4″,3″:4′,5′]pyrido[3′,2′:4, 5]thieno[2,3-e]pyrrolo[1,2-a]pyrimidine-8,12-dione] | > 25 µM | – | –
Nc1c(C(=O)Nc2cccc(C(F)(F)F)c2)sc2nc3c(cc12)CCCCCC3 [Compound 370, 3-amino-N-(3-(trifluoromethyl)phenyl)-5,6,7,8,9,10-hexahydrocycloocta[b] thieno[3,2-e]pyridine-2-carboxamide] | – | < 5 µM | –

SMILES | EC50 [1] | EC50 [3] | other results
CC1(C)CC(=O)c2cc3c(N)c(C(=O)NCc4ccco4)sc3nc2C1 [Compound 95, 3-Amino-7,7-dimethyl-5-oxo-5,6,7,8-tetrahydro-thieno[2,3-b]quinoline-2-carboxylic acid (furan-2-ylmethyl)-amide] | – | – | EC50 [2]: 5 to 25 µM
CN1CCc2nc3sc(C(=O)Nc4cccc(C(F)(F)F)c4)c(N)c3cc2C1 [Compound 280, 3-Amino-6-methyl-5,6,7,8-tetrahydro-thieno[2,3-b][1,6]naphthyridine-2-carboxylic acid (3-trifluoromethyl-phenyl)-amide] | > 25 µM | – | –
Nc1c(C(=O)Nc2cc(Cl)ccc2Cl)sc2nc(-c3ccc4c(c3)OCO4)ccc12 [Compound 587, 3-amino-6-(1,3-benzodioxol-5-yl)-N-(2,5-dichlorophenyl)thieno[2,3-b]pyridine-2-carboxamide] | – | < 5 µM | –
Cc1ccc(NC(=O)c2sc3nc4c(cc3c2N)CN(C)CC4)c(C)c1 [Compound 17, 3-Amino-6-methyl-5,6,7,8-tetrahydro-thieno[2,3-b][1,6]naphthyridine-2-carboxylic acid (2,4-dimethyl-phenyl)-amide] | < 5 µM | – | –
COc1ccc(NC(=O)c2sc3nc(C)cc(C(F)(F)F)c3c2N)cc1 [Compound 162, 3-Amino-6-methyl-4-trifluoromethyl-thieno[2,3-b]pyridine-2-carboxylic acid (4-methoxy-phenyl)-amide] | > 25 µM | – | –
COc1cccc(-c2ccc3c(N)c(C(=O)Nc4ccc(C)cc4Br)sc3n2)c1 [Compound 627, 3-amino-N-(2-bromo-4-methyl-phenyl)-6-(3-methoxyphenyl)thieno[2,3-b] pyridine-2-carboxamide] | – | < 5 µM | –
CCN1CCc2nc3sc(C(=O)Nc4cccnc4Cl)c(N)c3cc2C1 [Compound 41, 3-Amino-6-ethyl-5,6,7,8-tetrahydro-thieno[2,3-b][1,6]naphthyridine-2-carboxylic acid (2-chloro-pyridin-3-yl)-amide] | – | – | EC50 [2]: < 5 µM
Cc1cc(C)c2c(N)c(C(=O)Nc3ccc(Br)cc3)sc2n1 [Compound 172, 3-Amino-4,6-dimethyl-thieno[2,3-b]pyridine-2-carboxylic acid (4-bromo-phenyl)-amide] | – | – | EC50 [2]: > 25 µM
CC1=NN(C(=O)c2sc3nc(-c4cccs4)cc(C(F)(F)F)c3c2C)C(O)(C(F)(F)F)C1 (stereo not drawn) [Compound 387, [5-hydroxy-3-methyl-5-(trifluoromethyl)-4H-pyrazol-1-yl]-[3-methyl-6-(2-thienyl)-4-(trifluoromethyl)thieno[2,3-b]pyridin-2-yl]methanone] | – | 5 to 25 µM | –
COc1cccc(-c2ccc3c(N)c(C(=O)Nc4cc(OC)c(OC)c(OC)c4)sc3n2)c1 [Compound 520, 3-amino-6-(3-methoxyphenyl)-N-(3,4,5-trimethoxyphenyl)thieno[2,3-b]pyridine-2-carboxamide] | – | < 5 µM | –
Cc1c(Cl)cccc1NC(=O)c1sc2nc(-c3ccc4c(c3)OCO4)ccc2c1N [Compound 586, 3-amino-6-(1,3-benzodioxol-5-yl)-N-(3-chloro-2-methyl-phenyl)thieno[2,3-b] pyridine-2-carboxamide] | – | < 5 µM | –
Cc1ccccc1NC(=O)c1sc2nc3c(c(-c4cccs4)c2c1N)CN(C)CC3 [Compound 27, 3-Amino-6-methyl-4-thiophen-2-yl-5,6,7,8-tetrahydro-thieno[2,3-b][1,6]naphthyridine-2-carboxylic acid o-tolylamide] | < 5 µM | – | –
CCOC(=O)c1cc(NC(=O)c2sc3nc(C)cc(COC)c3c2N)ccc1Cl [Compound 240, 5-[(3-Amino-4-methoxymethyl-6-methyl-thieno[2,3-b]pyridine-2-carbonyl)-amino]-2-chloro-benzoic acid ethyl ester] | > 25 µM | – | –
Nc1c(C(=O)Nc2ccc(O)cc2)sc2nc(-c3ccc(Cl)cc3)ccc12 [Compound 356, 3-amino-6-(4-chlorophenyl)-N-(4-hydroxy-phenyl) thieno [2,3-b]pyridine-2-carboxamide] | – | 5 to 25 µM | –
COc1cccc(-c2ccc3c(N)c(C(=O)Nc4cc(Cl)cc(Cl)c4)sc3n2)c1 [Compound 564, 3-amino-N-(3,5-dichlorophenyl)-6-(3-methoxyphenyl)thieno[2,3-b]pyridine-2-carboxamide] | – | < 5 µM | –
N#Cc1cc2c(N)c(C(=O)Nc3ccccc3C(F)(F)F)sc2nc1N [Compound 130, 3,6-Diamino-5-cyano-thieno[2,3-b]pyridine-2-carboxylic acid (2-trifluoromethyl-phenyl)-amide] | > 25 µM | – | –
N#Cc1c(N)nc2sc(C(=O)Nc3ccccc3)c(N)c2c1-c1ccco1 [Compound 375, 3,6-diamino-5-cyano-4-(2-furyl)-N-phenyl-thieno[2,3-b]pyridine-2-carboxamide] | – | 5 to 25 µM | –
NC(=O)c1sc2nc(N3CCOCC3)c3c(c2c1N)CCCC3 [Compound 171, 1-Amino-5-morpholin-4-yl-6,7,8,9-tetrahydro-thieno[2,3-c]isoquinoline-2-carboxylic acid amide] | – | – | EC50 [2]: > 25 µM
